From US20100130579A1, “CANCER THERAPY” (Georgetown University, priority 2006, published 2010)

How the values were obtained:
[1] = tested on: PC3 cells; experiment: Flow cytometric cell cycle analysis, PC3; type: cell-based, human; settings: 3 days
Procedure: (§1) FIG. 4A-4B. Mahanine arrests prostate cancer cells at G0/G1 phase of cell cycle. To determine if down-regulation of cyclin D1 by mahanine treatments affect cell cycle, PC3 4(A) and LNCaP 4(B) cells were treated with 0, 1 and 2 μg/ml mahanine for 3 days. After treatment, flow cytometric analyses were performed. The percentage of cells in the G0/G1, S and G2/M-phase of the cell cycle were shown on right. FACS analysis of PC3 and LNCaP prostate cancer cells with vehicle or 2 μg/ml mahanine are shown in the left panel. Values are the mean from two independent experiments in duplicates.
(§2) Since cyclin D1 regulates cell cycle progression at the G0/G1 phase, Aplicants examined the cell cycle profile of PC3 and LNCaP cells in the presence of various concentrations of mahanine.

[2] = tested on: cyclin D1; experiment: Immunofluorescence staining of cyclin D1 localization; type: cell-based, human; settings: PC3 cells, 2 μg/ml, 2 days
Procedure: FIGS. 3A-3C. Mahanine down-regulates cyclin D1 protein in prostate cancer cells. FIG. 3A and FIG. 3B: Western blots showing cyclin D1 protein levels in PC3 (A) and LNCaP (B) cells treated with 0, 1, 2 and 3 μg/ml mahanine for 3 days. Protein lysates (50 μg) from PC3 and LNCaP cells were resolved on 12% SDS-PAGE, and immunoblots were probed with antibodies to cyclin D1. All immunoblots were re-probed with β-actin antibodies to ensure equal loading. Representative photographs from an experiment that was repeated thrice. Quantitative analyses of relative levels of cyclin D1 proteins are shown on the right panels. […] FIG. 3C: PC3 cells were plated on chamber slides and treated with or without 2 μg/ml mahanine for 2 days. Cells were then fixed in methanol, incubated with cyclin D1 antibody overnight, Alexi Fluor-conjugated secondary antibodies for 1 hour and counter stained with propidium iodide (PI). Slides were then mounted and examined using a fluorescence microscope. Photographs were taken at the same magnification (×20) and then transported to Photoshop. Representative photographs from an experiment that was repeated twice.
Immunofluorescence staining: PC3 cells were plated onto chamber slides and treated with vehicle or mahanine (2 μg/ml) for 2 days. The cells were fixed in methanol, air-dried, and re-hydrated with PBS. […]

[3] = tested on: cyclin D1; experiment: Gene array (microarray) analysis of cyclin D1 expression; type: cell-based, human; settings: PC3 cells, 2 μg/ml, 2 days
Procedure: FIGS. 2A-2D. Mahanine down-regulates cyclin D1 expression in prostate and other cancer cells. FIG. 2A: Microarray analyses showing PC3 cells treated with (2 μg/ml) mahanine (+) or vehicle (−) for 2 days and RNA was extracted and microarray analysis was performed. FIG. 2B and FIG. 2C: PC3 (left panel) and LNCaP (right panel) cells were treated with 0, 1, 2 and 3 μg/ml mahanine for 3 days. RNA was extracted, and RT-PCR assays were performed to detect cyclin D1 and GAPDH mRNAs. Representative photograph from an experiment that was repeated thrice. Quantitative estimations of relative levels of cyclin D1 mRNAs (lower panel) were determined by densitometric measurements of RT-PCR gels from three independent experiments after normalization with GAPDH. […]
Microarray analysis: Total RNA was isolated from […] cells treated with or without mahanine using TRIZOL reagent (Invitrogen Corp., Carlsbad, Calif.). […] RNA was evaluated by electrophoresis before continuing with probe synthesis and hybridization. […] Following repetitive washing in saline-sodium citrate/SDS, hybridized cDNA probes were detected by chemiluminescence. […] Bound biotinylated cDNA probe was detected with alkaline phosphatase-conjugated streptavidin and CDP-Star chemiluminescent substrate (SuperArray). […]

[4] = tested on: cyclin D1; experiment: RT-PCR of cyclin D1 mRNA in cancer cells; type: cell-based, human
[5] = tested on: LNCaP cells; experiment: Flow cytometric cell cycle analysis, LNCaP; type: cell-based, human; settings: mahanine 3 days
Procedure: as §1, §2

[6] = tested on: caspase-3; settings: PC3 cells; cited from earlier work

With `CC(C)=CCC[C@@]1(C)C=Cc2c(c(C)cc3c2[nH]c2cc(O)ccc23)O1` [mahanine] the “cells in S-phase” value ([1]; 1 μg/ml, vehicle 7.5%) was “decreased the S-phase”, the “cells in G0/G1-phase” value ([1]; 1 μg/ml, vehicle 26%) was “increased the G0/G1-phase” and the “cells in G0/G1-phase” value ([1]; 2 μg/ml) was “further increased”. The “cells in S-phase” value ([1]; 2 μg/ml) was “completely abolished”, the “nuclear localization of cyclin D1” value [2] was “reduced and/or prevented the nuclear localization” and the “cyclin D1 expression (gene array)” value [3] was “down-regulated the expression of cyclin D1”. For the same compound, the “cyclin D1 expression (RT-PCR)” value ([4]; PC3 cells, 1, 2 and 3 μg/ml, 3 days) was “down-regulated the expression of cyclin D1 in PC3 cells in a dose-dependent manner”, the “cyclin D1 expression (RT-PCR)” value ([4]; epidermoid (A431), lung (A549), pancreatic (ASPC-1), colon (HT-29), breast (MCF7) and ovarian (SKOV-3) cancer cells, 2 and 3 μg/ml, 2 days) was “down regulation of cyclin D1” and the “cells in S-phase” value ([5]; decreased from 25.6% (control)) was 6.1%. For the same compound, the “cells in G0/G1 phase” value ([5]; increased from 63.7% (control)) was 90.7% and the “caspase-3 cleavage and activation” value [6] was “greatly increased caspase-3 cleavage and activation”.
